Measured values: patent US5663180A, “Substituted cyclopentenes for the treatment of inflammation” (G.D. Searle & Co., priority 1994, dated 1997)
Read-outs that look alike come from different tables or passages of the source. Values belong to the compound of their own block, whether it stands above or below them.

Legend:
[1] = tested on: COX II enzyme; conditions: literature report; cited from earlier work
[2] = molecular target: T1, HUMAN COX II (Homo sapiens, UniProt P35354); assay: COX II activity in vitro (PGE2 formed, ELISA, recombinant enzyme); assay type: biochemical; conditions: arachidonic acid 10 μM, 10-20 min pre-incubation, read-out: HUMAN COX II ID50
T1 construct: A 2.0 kb fragment containing the coding region of either human or murine COX-I or human or murine COX-II; made in house; host or cells: SF9 insect cells (recombinant baculovirus, pVL1393); CHAPS-solubilized
T1 sequence (P35354 18-604): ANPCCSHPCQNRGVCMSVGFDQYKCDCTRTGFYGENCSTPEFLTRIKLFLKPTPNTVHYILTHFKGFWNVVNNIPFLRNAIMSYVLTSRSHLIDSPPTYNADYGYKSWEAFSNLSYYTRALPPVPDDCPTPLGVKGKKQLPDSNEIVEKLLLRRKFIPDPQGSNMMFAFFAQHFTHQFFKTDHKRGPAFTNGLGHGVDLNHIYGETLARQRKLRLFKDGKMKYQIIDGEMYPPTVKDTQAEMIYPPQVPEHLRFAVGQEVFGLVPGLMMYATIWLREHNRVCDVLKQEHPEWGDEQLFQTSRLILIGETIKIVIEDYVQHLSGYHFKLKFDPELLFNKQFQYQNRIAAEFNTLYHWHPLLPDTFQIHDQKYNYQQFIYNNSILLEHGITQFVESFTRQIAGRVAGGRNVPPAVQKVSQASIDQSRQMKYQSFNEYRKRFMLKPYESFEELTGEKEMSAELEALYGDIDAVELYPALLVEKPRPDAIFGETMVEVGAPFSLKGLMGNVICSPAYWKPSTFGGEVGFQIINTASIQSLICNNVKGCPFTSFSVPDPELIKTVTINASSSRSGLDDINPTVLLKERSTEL
Description: Evaluation of COX I and COX II activity in vitro
The COX II inhibition activity of the compounds of this invention illustrated in the Examples was determined by the following methods. a. Preparation of recombinant COX baculoviruses
Recombinant baculoviruses were isolated by transfecting 4 μg of baculovirus transfer vector DNA into SF9 insect cells (2x10e8) along with 200 ng of linearized baculovirus plasmid DNA by the calcium phosphate method.
Assay for COX I and COX II activity

[3] = molecular target: T2, HUMAN COX I (Homo sapiens, UniProt P23219); assay: COX I activity in vitro (PGE2 formed, ELISA, recombinant enzyme); assay type: biochemical; conditions: read-out: HUMAN COX I ID50
T2 construct: A 2.0 kb fragment containing the coding region of either human or murine COX-I or human or murine COX-II; made in house; host or cells: SF9 insect cells (recombinant baculovirus, pVL1393); CHAPS-solubilized
T2 sequence (P23219 24-599): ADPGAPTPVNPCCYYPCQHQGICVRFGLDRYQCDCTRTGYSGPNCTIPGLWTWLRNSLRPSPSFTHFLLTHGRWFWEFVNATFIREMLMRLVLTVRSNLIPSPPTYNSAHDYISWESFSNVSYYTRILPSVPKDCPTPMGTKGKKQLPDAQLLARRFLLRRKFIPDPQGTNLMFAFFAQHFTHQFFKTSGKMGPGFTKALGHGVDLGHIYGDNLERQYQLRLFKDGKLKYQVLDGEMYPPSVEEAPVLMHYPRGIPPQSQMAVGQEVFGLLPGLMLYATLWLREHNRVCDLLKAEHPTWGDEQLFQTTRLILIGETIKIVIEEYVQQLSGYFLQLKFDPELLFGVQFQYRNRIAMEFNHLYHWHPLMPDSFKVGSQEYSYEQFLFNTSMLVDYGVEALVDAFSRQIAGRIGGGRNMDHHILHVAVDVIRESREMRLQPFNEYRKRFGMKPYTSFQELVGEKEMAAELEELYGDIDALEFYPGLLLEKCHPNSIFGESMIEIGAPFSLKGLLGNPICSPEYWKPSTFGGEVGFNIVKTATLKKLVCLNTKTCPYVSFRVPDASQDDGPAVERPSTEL

[4] = tested on: RAT PAW EDEMA; assay: Rat Carrageenan Foot Pad Edema Test; conditions: po, 3 h, read-out: RAT PAW EDEMA % Inhibition
[5] = tested on: hyperalgesic foot withdrawal (rat carrageenan); assay: Rat Carrageenan-induced Analgesia Test; assay type: in vivo, Male Sprague-Dawley rats
Description: Male Sprague-Dawley rats were treated as previously described for the Carrageenan Foot Pad Edema test. […] After an initial twenty minute period, thermal stimulation was begun on either the injected foot or on the contralateral uninjected foot. A photoelectric cell turned off the lamp and timer when light was interrupted by paw withdrawal. The time until the rat withdraws its foot was then measured. The withdrawal latency in seconds was determined for the control and drug-treated groups, and percent inhibition of the hyperalgesic foot withdrawal determined.

[6] = recombinant human COX I, arachidonic acid 10 μM, 10-20 min pre-incubation
[7] = po, 3 h, read-out: ANALGESIA % Inhibition

Compound: CS(=O)(=O)Nc1ccc([N+](=O)[O-])cc1OC1CCCCC1 [N-(2-cyclohexyloxy-4-nitrophenyl)methanesulfonamide]
inhibition of the COX II enzyme [1]: inhibits the COX II enzyme

IC50 [2]: < 0.1 µM
IC50 [3, 6]: > 100 µM
Compound: CS(=O)(=O)c1ccc(C2=C(c3cccc(F)c3F)CCC2)cc1 [Example 25, 1-[2-(2,3-Difluorophenyl)cyclopenten-1-yl]-4-(methylsulfonyl)benzene]

Compound: Cc1ccc(C2=C(c3ccc(S(C)(=O)=O)cc3)CCC2)cn1 [Example 36]
inhibition in vivo at 30 mg/kg [4]: 33%
IC50 [3, 6]: > 100 µM

Compound: NS(=O)(=O)c1ccc(C2=C(c3ccc(F)cc3)CCC2)cc1 [Example 20, 4-[2-(4-Fluorophenyl)cyclopenten-1-yl]benzenesulfonamide]
inhibition in vivo at 10 mg/kg [4]: 26%
inhibition in vivo at 30 mg/kg [5, 7]: 44%
IC50 ([3]; recombinant cox-i): 4.2 µM

IC50 [3, 6]: 0.5 µM
Compound: CC1(C)CC(c2ccc(F)cc2)=C(c2ccc(S(N)(=O)=O)cc2)C1 [Example 13, 4-[2-(4-Fluorophenyl)-4,4-dimethylcyclopenten-1-yl]benzenesulfonamide]
inhibition in vivo at 30 mg/kg [4]: 34%
inhibition in vivo at 30 mg/kg ([5]; read-out: ANALGESIA % Inhibition, Assay performed at 30 mg/kg body weight (footnote 2), oral, 3 hours after carrageenan, read-out: […] % Inhibition): 14%

IC50 [2]: < 0.1 µM
Compound: CC1(C)CC(c2ccc(Cl)cc2)=C(c2ccc(S(N)(=O)=O)cc2)C1 [Example 15, 4-[2-(4-Chlorophenyl)-4,4-dimethylcyclopenten-1-yl]benzenesulfonamide]
inhibition in vivo at 30 mg/kg [4]: 41%

IC50 [2]: 3.9 µM
IC50 [3, 6]: 10 µM
Compound: CCC1(CC)CC(c2ccc(F)cc2)=C(c2ccc(S(N)(=O)=O)cc2)C1 [Example 19, 4-[2-(4-Fluorophenyl)-4,4-diethylcyclopenten-1-yl]benzenesulfonamide]

Compound: CS(=O)(=O)c1ccc(C2=C(c3ccc(Cl)cc3)CCC2)cc1 [Example 3, 1-[2-(4-Chlorophenyl)cyclopenten-1-yl]-4-(methylsulfonyl)benzene]
inhibition in vivo at 10 mg/kg [4]: 33%
inhibition in vivo at 20 mg/kg [5, 7]: 41%

Compound: Cc1ccc(C2=C(c3ccc(S(C)(=O)=O)cc3)CCC2)cc1 [Example 5, 1-[2-(4-Methylphenyl)cyclopenten-1-yl]-4-(methylsulfonyl)benzene]
inhibition in vivo at 10 mg/kg [4]: 16%

Compound: COc1ccc(C2=C(c3ccc(S(N)(=O)=O)cc3)CCC2)cc1Cl [Example 32, 4-[2-(3-Chloro-4-methoxyphenyl)cyclopenten-1-yl]benzenesulfonamide]
inhibition in vivo at 10 mg/kg [4]: 13%
inhibition in vivo at 30 mg/kg [5, 7]: 17%

Compound: COc1ccc2cc(CC(=O)O)ccc2c1 [6-methoxy-2-napthylacetic acid]
inhibition of the COX II enzyme [1]: selectively inhibit the COX II enzyme

Compound: CC1(C)CC(c2ccc(Cl)cc2)=C(c2ccc(S(C)(=O)=O)cc2)C1 [Example 14, 1-[2-(4-Chlorophenyl)-4,4-dimethylcyclopenten-1-yl]-4-(methylsulfonyl)benzene]
inhibition in vivo at 30 mg/kg [4]: 31%
IC50 ([3]; recombinant cox-i): 1.6 µM

Compound: NS(=O)(=O)c1ccc(C2=C(c3ccc(Cl)c(Cl)c3)CCC2)cc1 [Example 28, 4-[2-(3,4-Dichlorophenyl)cyclopenten-1-yl]benzenesulfonamide]
inhibition in vivo at 10 mg/kg [4]: 10%
inhibition in vivo at 30 mg/kg [5, 7]: 26%

IC50 [3, 6]: 3.6 µM
Compound: NS(=O)(=O)c1ccc(C2=C(c3cccc(F)c3F)CCC2)cc1 [Example 26, 4-[2-(2,3-Difluorophenyl)cyclopenten-1-yl]benzenesulfonamide]

IC50 [2]: < 0.1 µM
IC50 [3, 6]: > 100 µM
Compound: O=S(=O)(CF)c1ccc(C2=C(c3ccc(F)cc3)CCC2)cc1 [Example 37, 1-[2-(4-Fluorophenyl)cyclopenten-1-yl]-4-(fluoromethylsulfonyl)benzene]

Compound: CS(=O)(=O)c1ccc(C2=C(c3ccc(C(F)(F)F)cc3)CCC2)cc1 [Example 6, 1-[2-(4-Trifluoromethylphenyl)cyclopenten-1-yl]-4-(methylsulfonyl)benzene]
inhibition in vivo at 10 mg/kg [4]: 39%
inhibition in vivo at 20 mg/kg [5, 7]: 29%

Compound: NS(=O)(=O)c1ccc(C2=C(c3ccc(Cl)cc3)CCC2)cc1 [Example 21, 4-[2-(4-Chlorophenyl)cyclopenten-1-yl]benzenesulfonamide]
IC50 ([3]; recombinant cox-i): 1.3 µM

Compound: CSc1ccc(C2=C(c3ccc(S(C)(=O)=O)cc3)CCC2)cc1 [Example 11, 1-[2-(4-Methylthiophenyl)cyclopenten-1-yl]-4-(methylsulfonyl)benzene]
inhibition in vivo at 20 mg/kg [5, 7]: 39%

Compound: Cc1cc(F)ccc1C1=C(c2ccc(S(C)(=O)=O)cc2)CCC1 [Example 2, 1-[2-(4-Fluoro-2-methylphenyl)cyclopenten-1-yl]-4-(methylsulfonyl)benzene]
inhibition in vivo at 10 mg/kg [4]: 39%

Compound: COc1ccc(C2=C(c3ccc(S(C)(=O)=O)cc3)CCC2)cc1 [Example 23, 1-[2-(4-Methoxyphenyl)cyclopenten-1-yl]-4-(methylsulfonyl)benzene]
inhibition in vivo at 10 mg/kg [4]: 22%
inhibition in vivo at 30 mg/kg [5, 7]: 15%
IC50 ([3]; recombinant cox-i): 9.9 µM

Compound: COc1ccc(C2=C(c3ccc(S(N)(=O)=O)cc3)CCC2)cc1F [Example 30, 4-[2-(3-Fluoro-4-methoxyphenyl)cyclopenten-1-yl]benzenesulfonamide]
inhibition in vivo at 30 mg/kg [4]: 47%
IC50 ([3]; recombinant cox-i): 8.1 µM

Compound: CS(=O)(=O)c1ccc(C2=C(c3ccc4c(c3)OCO4)CCC2)cc1 [Example 35, 5-[2-[4-(Methylsulfonyl)phenyl]cyclopenten-1-yl]-1,3-benzodioxole]
inhibition in vivo at 30 mg/kg [4]: 6%

Compound: NS(=O)(=O)c1ccc(C2=C(c3ccc(F)c(Cl)c3)CCC2)cc1 [Example 34, 4-[2-(3-Chloro-4-fluorophenyl)cyclopenten-1-yl]benzenesulfonamide]
inhibition in vivo at 10 mg/kg [4]: 37%
inhibition in vivo at 30 mg/kg [5, 7]: 46%
IC50 [3, 6]: 2.1 µM

Compound: CC1(C)CC(c2ccc(F)cc2)=C(c2ccc(S(C)(=O)=O)cc2)C1 [Example 12, 1-[2-(4-Fluorophenyl)-4,4-dimethylcyclopenten-1-yl]-4-(methylsulfonyl)benzene]
inhibition in vivo at 20 mg/kg [4]: 45%
IC50 ([3]; recombinant cox-i): 18.3 µM

Compound: CS(=O)(=O)c1ccc(C2=C(c3ccc(Cl)cc3Cl)CCC2)cc1 [Example 4, 1-[2-(2,4-Dichlorophenyl)cyclopenten-1-yl]-4-(methylsulfonyl)benzene]
inhibition in vivo at 10 mg/kg [4]: 25%

Compound: CS(=O)(=O)c1ccc(C2=C(c3ccc(F)cc3)CCC2)cc1 [Example 1, 1-[2-(4-Fluorophenyl)cyclopenten-1-yl]-4-(methylsulfonyl)benzene]
inhibition in vivo at 10 mg/kg [4]: 32%
inhibition in vivo at 20 mg/kg [5, 7]: 66%
